From PubChem BioAssay (NCI) come the findings set out here.

SMILES strings stand for the structures.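 1) Cells in 96-well plates. 2) Compound, 48 h, 5 concentrations. 3) Linear interpolation between surrounding doses. 4) Unreached endpoint = highest concentration. TGI: total growth inhibition.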

Some test systems named below: HCT-15 colon; OVCAR-4 ovarian; UACC-257 melanoma; SNB-19 CNS; MOLT-4 leukemia; M14 melanoma; OVCAR-8 ovarian; SK-MEL-28 melanoma.
What all share (experiment): NCI anticancer screen, dose series, 48 h

On to `COc1ccc(S(=O)(=O)NNS(C)(=O)=O)cc1OC`, for which the TGI in the assay on HCT-15 colon, in the assay with OVCAR-4 ovarian, with UACC-257 melanoma, in the assay with SNB-19 CNS, in the assay on MOLT-4 leukemia and in the assay on M14 melanoma was > 100 µM throughout. In the assay on OVCAR-8 ovarian, the TGI is > 100 µM.

Turning to `CC1(C)O[C@@H](CCl)C[C@@H](C#N)O1`, the TGI in the assay with OVCAR-4 ovarian, in the assay with UACC-257 melanoma, in the assay with SNB-19 CNS, in the assay on SK-MEL-28 melanoma, in the assay on MOLT-4 leukemia and in the assay on M14 melanoma was > 100 µM throughout. Moreover, in the assay with OVCAR-8 ovarian, the TGI is > 100 µM.

With `C=C(/C=C/C=C(\CO)CCC=C(C)C)[C@H]1CCC2([C@H](CCCO)/C(=C(/C)C=O)CC[C@]2(C)O)[C@H]1O` (stereo partly drawn), the TGI with HCT-15 colon, in the assay with OVCAR-4 ovarian, in the assay with UACC-257 melanoma, in the assay with SNB-19 CNS, in the assay with SK-MEL-28 melanoma and in the assay with MOLT-4 leukemia was > 100 µM each time. The TGI in the assay on M14 melanoma and with OVCAR-8 ovarian was > 100 µM in each case.

Take `CN(C)CN(C)c1nc(N(C)C)nc(N(C)C)n1`: the TGI in the assay on HCT-15 colon, in the assay on OVCAR-4 ovarian, in the assay with UACC-257 melanoma, in the assay on SNB-19 CNS, with SK-MEL-28 melanoma and in the assay with MOLT-4 leukemia was > 100 µM in each case. Besides, the TGI in the assay on M14 melanoma and with OVCAR-8 ovarian was > 100 µM each time.

In the case of `Clc1ccc(/C=C/c2csnn2)cc1`, the TGI in the assay on HCT-15 colon, in the assay with OVCAR-4 ovarian, with UACC-257 melanoma, in the assay with SNB-19 CNS, in the assay with SK-MEL-28 melanoma and in the assay on MOLT-4 leukemia was > 100 µM each time. Further, the TGI in the assay on M14 melanoma and with OVCAR-8 ovarian was > 100 µM in each case.

Take `O=C(CC/C(CC(=O)c1ccc(Cl)cc1)=N\O)Nc1cccc(Cl)c1`: the TGI with HCT-15 colon, in the assay on OVCAR-4 ovarian, with UACC-257 melanoma, in the assay with SNB-19 CNS, in the assay with SK-MEL-28 melanoma and in the assay on MOLT-4 leukemia was > 100 µM each time. Moreover, the TGI in the assay with M14 melanoma and with OVCAR-8 ovarian was > 100 µM in each case.

Regarding `COC(=O)C1C(=O)NC2(C)CC1c1ccccc1O2` (stereo not drawn), the TGI in the assay on HCT-15 colon, in the assay with OVCAR-4 ovarian, in the assay on UACC-257 melanoma, in the assay on SNB-19 CNS, in the assay with SK-MEL-28 melanoma and with MOLT-4 leukemia was > 100 µM each time. The values for the TGI in the assay with M14 melanoma and in the assay on OVCAR-8 ovarian were > 10 µM and > 100 µM, respectively.

As for `O=C(O)c1cc2ccc(Cl)cc2c(O)c1C1=CCCCC1`, the TGI in the assay with HCT-15 colon is > 100 µM; with OVCAR-4 ovarian, 57.2 µM; in the assay with UACC-257 melanoma, 88.5 µM; with SNB-19 CNS it was > 100 µM; with SK-MEL-28 melanoma, > 100 µM; in the assay on MOLT-4 leukemia, > 100 µM. The TGI in the assay with M14 melanoma and in the assay on OVCAR-8 ovarian was > 100 µM in each case.

Consider `Cc1c(C(=O)/C=C/c2ccc3c(c2)OCO3)[n+](=O)c2ccccc2n1[O-]`, for which the TGI with OVCAR-4 ovarian was > 100 µM; in the assay on UACC-257 melanoma it was > 100 µM; in the assay with SNB-19 CNS, > 100 µM; with SK-MEL-28 melanoma, > 100 µM; in the assay on MOLT-4 leukemia, 73.9 µM; in the assay on M14 melanoma it was > 100 µM. The molecule also came in with a TGI in the assay with OVCAR-8 ovarian of 62.9 µM.

Regarding `NC(=O)C1C(=O)Oc2cccnc21` (stereo not drawn), the TGI with HCT-15 colon, in the assay with UACC-257 melanoma, with SNB-19 CNS, in the assay on SK-MEL-28 melanoma, in the assay with MOLT-4 leukemia and with M14 melanoma was > 100 µM in each case. In addition, the TGI in the assay with OVCAR-8 ovarian is > 100 µM.

For `Cc1ccc(/C=C2\CCCC(C(NO)c3ccc(C)cc3)C2=NO)cc1` (stereo not drawn), the TGI was > 100 µM in the assay with HCT-15 colon; 45.4 µM in the assay with OVCAR-4 ovarian; > 100 µM in the assay on UACC-257 melanoma; > 100 µM with SNB-19 CNS; 67.7 µM with SK-MEL-28 melanoma; 42.6 µM in the assay on MOLT-4 leukemia. Also, the TGI in the assay with M14 melanoma was 85.4 µM; in the assay on OVCAR-8 ovarian it was > 100 µM.

In the case of `COc1ccc(C2NC(c3ccc(OC)cc3)C(C)C(=O)C2C)cc1` (stereo not drawn), the TGI in the assay on HCT-15 colon, in the assay with OVCAR-4 ovarian, in the assay on UACC-257 melanoma, in the assay with SNB-19 CNS, with SK-MEL-28 melanoma and in the assay with MOLT-4 leukemia was > 100 µM throughout. Further, the TGI in the assay with M14 melanoma and with OVCAR-8 ovarian was > 100 µM throughout.

`O=C(Cn1ccnc1[N+](=O)[O-])NCc1ccc(F)cc1`: the TGI in the assay on HCT-15 colon, with OVCAR-4 ovarian, with UACC-257 melanoma, with SNB-19 CNS, in the assay with SK-MEL-28 melanoma and in the assay on MOLT-4 leukemia was > 100 µM each time. Also, the TGI in the assay on M14 melanoma and in the assay with OVCAR-8 ovarian was > 100 µM each time.

On to `COc1cc2ccc(CC(=O)O)cc2cc1OC`, for which the TGI with HCT-15 colon, in the assay with OVCAR-4 ovarian, with UACC-257 melanoma, in the assay on SNB-19 CNS, in the assay on SK-MEL-28 melanoma and in the assay on MOLT-4 leukemia was > 100 µM each time. The TGI in the assay with M14 melanoma and with OVCAR-8 ovarian was > 100 µM throughout.

Take `O=C(Nc1c(Cl)cc([N+](=O)[O-])cc1Cl)C(=O)C(C(=O)c1ccncc1)C1OC(=O)c2ccccc21` (stereo not drawn): the TGI in the assay with HCT-15 colon, in the assay with OVCAR-4 ovarian, in the assay on UACC-257 melanoma, in the assay with SNB-19 CNS, in the assay with SK-MEL-28 melanoma and with MOLT-4 leukemia was > 100 µM throughout. Further, the TGI in the assay on M14 melanoma and with OVCAR-8 ovarian was > 100 µM in each case.

`CCOc1ccccc1NC(=O)C1=C(C)NC(C)=C(C(=O)Nc2ccccc2OCC)C1c1ccc2c(c1)OCO2`: the TGI with OVCAR-4 ovarian was 76.2 µM; in the assay with UACC-257 melanoma, > 100 µM; in the assay on SNB-19 CNS, > 100 µM; with SK-MEL-28 melanoma it was > 100 µM; in the assay with MOLT-4 leukemia, 75.3 µM; in the assay on M14 melanoma, 78.2 µM. For the same molecule, in the assay on OVCAR-8 ovarian, the TGI is > 100 µM.
